| melting point [°C] | SMILES |
| --- | --- |
| 149 to 150 | COCC1=C(C(=O)NCCCN2CCC(c3ccc(F)cc3)CC2)C(c2ccc(F)c(F)c2)NC(=O)N1 (single isomer, unassigned; (-)) |
| 218 to 219 | C=CCC1C(=O)N(Cc2ccccc2)c2ccccc2N(C(=O)CN2C(=O)c3ccccc3C2=O)C1C (stereo unspecified) |
| 99 to 100 | O=C(O)CCC1Cc2ccccc2C1 |
| 164 | CC(C)n1cc(-c2cccc(Cl)c2)c2ncccc2c1=O |
| 200 to 202 | CNC(=O)c1cnn(-c2ccccn2)c1C#N |
| 228 to 230 | COc1cccc(S(=O)(=O)c2ccc3c(c2)[C@@H](Nc2ccnc(Cl)n2)[C@](C)(O)C(C)(C)O3)c1 |
| 92 to 95 | CCOC(=O)c1cccc(CCC(CO)n2cnc(C(N)=O)c2)c1 (stereo unspecified) |
| 18 | CCCCCC(=O)CCC(C)=O |
| 252 to 253 | O=Cc1ccc(O)c(CP(=O)(O)O)c1 |
| 95 to 96 | CCOc1cc(C=CC(C)=O)ccc1OC |
| 120 | CC(C(=O)O)c1cccc(NC(=O)NCC(=O)N2[C@@H](c3ccccc3)CC[C@H]2C(=O)OC(C)(C)C)c1 (stereo partly specified) |
| 113 to 115 | CN1CCCC1=NC(=O)Nc1ccc(F)cc1 |
| 128 | Nc1ccc(OCCN2CCN(c3nsc4ccccc34)CC2)cc1 |
| 0 to 20 | CCc1ccc(C(=O)c2cccc(F)c2)c(O)c1 |
| 170 to 172 | O=[N+]([O-])c1cccc(NN=C(c2ccc(Cl)cc2)c2ccc(Cl)cc2)c1 |
| 126 to 128 | CSc1c(O)ccc2[nH]ncc12 |
| 150 to 152 | CSc1cc(S(F)(F)(F)(F)F)ccc1C(=O)O |
| 91 to 93 | COC(=O)c1cccnc1Cn1cccc1C=O |
| 223 to 225 | CC(Nc1ccccc1N)=C1C(=O)OC(=O)C(C(=O)C=Cc2ccc(O)cc2)=C1O |
| 223 to 224 | CCCCNc1cc(C(N)=O)cc(S(N)(=O)=O)c1Oc1ccccc1 |
| 88 to 89 | COc1ccc(S(=O)(=O)N2CCCC2)cc1 |
| 132 to 133 | CCCn1c(=O)c(-c2ccccc2)c2n(c1=O)CCCS2 |
| 114 to 116 | CCOC(=O)c1c2ccc(Cl)cc2c(-c2ccccc2)n1CCO |
| 65 to 68 | O=Cc1cccc(Cl)c1SCc1ccccc1 |
| 148 to 150 | O=C1CC[C@@H]([N+](=O)[O-])[C@H](c2ccc(Cl)cc2)N1 (relative stereo) |

| melting point [°C] | SMILES |
| --- | --- |
| 81 to 81.5 | OC(CCN1CCN(c2ccccn2)CC1)COc1cccc(C(F)(F)F)c1 (stereo unspecified) |
| 148 to 150 | O=[N+]([O-])c1cc(C(O)CCN2CCC(c3ccccc3)CC2)ccc1C1CCCCC1 (stereo unspecified) |
| 207 to 208 | CC1(C)CC(Cc2ccc(CC3CC(C)(C)N(Cc4ccccc4)C(C)(C)C3)cc2)CC(C)(C)N1Cc1ccccc1 |
| 168 to 170 | CCOC(=O)c1cn(-c2ccccc2)c2occc2c1=O |
| 134 | CCOC(=O)C1=C(N)OC(C)=C(C(=O)OC)C1c1cccc([N+](=O)[O-])c1 (stereo unspecified) |
| 117 to 119 | COc1ccc(SCc2ccc(-c3csnn3)cc2)cc1 |
| 100 to 102 | O=C1CC(CO)N1c1ccccc1 (stereo unspecified) |
| 146 to 148 | CC(C)c1ccc(COc2ccc(CC(=O)O)cc2Cl)cc1 |
| 121 to 123 | C=C(c1ccc(OC)c(OC2CCCC2)c1)c1n[nH]cc1CO |
| 125 to 126 | CCC(C)(C)c1ccc(OCCCNC(=O)c2cc(OS(=O)(=O)CCCOc3ccc(N)cc3)c3ccccc3c2O)c(C(C)(C)CC)c1 |
| 181 to 182 | Nc1nc2[nH]c(CCCc3csc(C(=O)O)c3)cc2c(=O)[nH]1 |
| 111 to 114 | O=C(OCc1ccccc1)C1=C(c2ccccc2)C(c2ccccc2)OC1=O (stereo unspecified) |
| 115 to 119 | CN(Cc1cc2c(=O)c(C(=O)NCc3ccc(Cl)cc3)cn(C)c2o1)CC(O)c1ccc(-c2ccccc2)o1 (stereo unspecified) |
| 178 to 179 | COC(=NO)c1cccc2[nH]cc(C=O)c12 |
| 106 to 108 | O=C1Nc2ccc(NCCCc3ccccc3)cc2C12OCCO2 |
| 85 to 87 | CC1CCC(C(C)C)C(OC(=O)/C=C\C(=O)c2ccccc2)C1 (stereo unspecified) |
| 182 to 184 | CN1CCN(C2=Nc3ccccc3Nc3nn(C)nc32)CC1 |
| 260 to 265 | O=C1NCCN(Cc2cc(=O)c(OCc3ccccc3)cn2Cc2ccccc2)C1=O |
| 120 | Cc1cc(-c2cncc(OC3SCC(O)C(O)C3O)c2)ccn1 (stereo unspecified) |
| 101 to 103 | CCOC(=O)c1c(CC)[nH]c(CC)c1C |
| 189 to 196 | Fc1c(F)c(F)c(CSc2nc3ccccc3[nH]2)c(F)c1F |
| 255 | O=C(O)CNC1C2CC3CC(C2)CC1C3 (stereo unspecified) |
| 59 to 61 | CCOC(=O)/C=C/c1ccc(OC(C)=O)c(Cl)c1 |
| 95 to 97 | Cc1cc(Cl)n(-c2ccc(Cl)cc2F)n1 |
| 172 | CCCCOc1c(CNC(=O)OC(C)(C)C)n(CC(C)C)c(=O)c2ccc(-c3nc(C(=O)OCC)cs3)cc12 |

| melting point [°C] | SMILES |
| --- | --- |
| 58 to 59 | Nc1c(C(F)(F)F)cc(OCc2ccccc2)cc1C(F)(F)F |
| 183 to 185 | CCOC(=O)COc1ccc2c(=O)c3ccccc3oc2c1Cl |
| 195 to 196 | CCn1ccc(=O)c2cnc(-c3cccnc3)nc21 |
| 102 to 103 | CCOC(=O)c1cnn(-c2ccc(N)cc2)c1C(F)(F)F |
| 222 | CN(C)c1nc(=O)[nH]n1C |
| 82 to 84 | COC(=O)C1CCc2cc(OC)ccc2C1=O (stereo unspecified) |
| 121 to 123 | COc1ccc(C(=C/C=C/C(=O)Oc2ccc([N+](=O)[O-])cc2)c2ccc(OC)cc2)cc1 |
| 183 to 185 | CCOC(=O)Cc1c(C(=O)O)c(Br)c(C(=O)c2ccc(Cl)cc2)n1C |
| 168 to 170 | Cc1cc2c(O)cccc2[nH]1 |
| 218 to 220 | COc1cc(C(=O)O)c(C(=O)O)c(Cl)c1Cl |
| 133 to 135 | COc1ccc(C[C@H](NC(=O)OC(C)(C)C)C(=O)c2ccc(O)cc2)cc1 |
| 65 to 67 | CC(NC(=O)N(Cc1csc(C(C)C)n1)C1CC1)C(=O)NC(Cc1ccccc1)CC(O)C(Cc1ccccc1)NC(=O)OCc1cncs1 (stereo unspecified) |
| 48 to 50 | CC(C)(C)OC(=O)N1CCC[C@H]1COc1cccc2c1ccn2S(=O)(=O)c1ccccc1 |
| 101 to 103 | CC(=O)c1cccc(Oc2ncccc2C(=O)NCC2CCC(C(C)O)CC2)c1 (stereo unspecified) |
| 142 | CCCC(=O)c1cc2nc(CO)n(C)c2cc1C |
| 80 | Brc1ccc(SCc2noc(CSc3ccc(Br)cc3)n2)cc1 |
| 220 to 221 | NC(=O)N1C(=O)C(=C(OC(=O)c2ccncc2)c2cccs2)c2cc(F)c(Cl)cc21 |
| 88 to 90 | CCC(=O)Oc1ccc(C(=O)c2ccc(Sc3ccccc3)cc2)c(O)c1 |
| 156 to 158 | COc1ccc([N+](=O)[O-])c(Nc2cccc(O)c2)n1 |
| 93 to 95 | CC(C)CN(Cc1ccccc1)c1ncnc2c1ncn2C1CCCCO1 (stereo unspecified) |
| 113 to 115 | C=CC(=O)c1cnc(N2CCC[C@H]2CO)nc1NCc1ccc(OC)c(Cl)c1 |
| 62 to 65 | CC(=O)NCCCCCCCCCCC(=O)O |
| 173 to 178 | CN1C(=O)C(NC(=O)Nc2ccccc2)C(=O)N(CC23CC4CC(CC(C4)C2)C3)c2ccccc21 (single isomer, unassigned; (-)) |
| 147 to 149 | CCOc1cc([C@@H](CS(C)(=O)=O)N2Cc3cccc(NCC4CC4)c3C2=O)ccc1OC |
| 240 to 241 | O=C1NC2=C(C=CCC2)S(=O)(=O)c2cc(C(F)(F)F)ccc21 |

| melting point [°C] | SMILES |
| --- | --- |
| 156 | C#CCC(CC#C)(C(=O)NO)S(=O)(=O)c1ccc(OC)cc1 |
| 35 to 37 | COC(=O)c1ccc(OC)cc1S |
| 161 | O=Cc1ccc(C(=O)Nc2ccncc2)cc1 |
| 118 to 123 | Oc1ccc(-c2nnc(CCCCCc3ccccc3)o2)cc1 |
| 153 to 154 | COc1cc2c(cc1OC)CN(CC(O)CC1(c3noc4cc(F)ccc34)CCNCC1)CC2 (stereo unspecified) |
| 187 to 189 | O=C(Nc1cc(-c2nnc(Cc3ccccc3)o2)ccn1)c1ccccc1 |
| 177 to 179 | CN(C)C(=O)COC(=O)c1cc(-c2ccccc2)c(=O)n2c1-c1ccccc1C2 |
| 190 to 191 | CCNC(=O)c1ccc(CN2C(=O)C3(COc4cc5c(cc43)CCO5)c3ccccc32)cc1 (stereo unspecified) |
| 250 to 252 | O=C1c2c(cc(O)c(Cl)c2Cl)CC1c1ccccc1 (stereo unspecified) |
| 247 to 249 | Cc1cccc(-c2nc3cccnn3c2-c2ccnc(NC(=O)Nc3ccccc3)c2)c1 |
| 229 to 230 | O=C(Nc1c(C(F)(F)F)n[nH]c1-c1ccccc1)c1ccccc1 |
| 282 to 284 | COc1ccc2cc3c(c(-c4ccc(F)cc4)c2c1)CNC3=O |
| 246 to 247 | CC(=O)c1c(Nc2ccccc2)n[nH]c1C |
| 148 to 149 | O=C(O)C(Cc1ccccc1)Oc1ccc(-c2ccc(-c3c(Br)oc4ccccc34)cc2)cc1 (stereo unspecified) |
| 103 to 104 | CCn1nc(C(C)(F)F)nc1Cc1ccc(-c2ccccc2-c2nnn[nH]2)nc1 |
| 148 to 150 | O=C1C=C(c2ccccc2)SCCN1 |
| 153 to 154 | Cc1c(Cc2ccccc2)c2c(c(C)c1NC(=O)CC(C)(C)C)C(c1ccc(C(C)C)cc1)CO2 (stereo unspecified) |
| 141 to 143 | CC(C)(C)NC(=O)[C@@H]1C[C@H](Cl)CN1C(=O)[C@@H](O)[C@H](Cc1ccccc1)NC(=O)[C@H](CC(N)=O)NC(=O)c1cc2cc(F)ccc2[nH]1 |
| 88 to 91 | CCOC(=O)C(C)=C(C)NC(=O)Nc1ccc(Cl)c(C(=O)OCC)c1 |
| 106 to 108 | O=C1c2ccccc2C(=O)N1CC=CCn1ccnc1 |
| 115 to 116 | CC(=O)c1ccc(OCc2ccccc2)c(CCCc2ccccc2)c1O |
| 209 to 213 | COc1cc(C(=O)OC(C)C)cc(OC)c1Cc1cnc(N)nc1N |
| 50 to 51 | Cc1ccc(C2=NC(C)(C)[C@@H](c3ccncc3)C2)c(C)c1 |
| 150 to 152 | CC(=O)C=Cc1cn(CC(=O)N(C)CCc2ccccc2)c2ccc(OCc3ccccc3)cc12 |

| SMILES | melting point [°C] |
| --- | --- |
| CCOC12N=C(c3cccnc3)SC1Cc1cc(Cl)ccc12 (stereo unspecified) | 89 to 90 |
| c1ccc2c(c1)CC1(CCNCC1)O2 | 56 to 58.5 |
